{
  "source": "ChEMBL document CHEMBL4390652",
  "about": "“Design, biological evaluation and X-ray crystallography of nanomolar multifunctional ligands targeting simultaneously acetylcholinesterase and glycogen synthase kinase-3” (Eur J Med Chem, 2019)",
  "key": {"[1]": {"target": "Acetylcholinesterase (Homo sapiens, UniProt P22303)", "sequence (P22303 whole entry)": "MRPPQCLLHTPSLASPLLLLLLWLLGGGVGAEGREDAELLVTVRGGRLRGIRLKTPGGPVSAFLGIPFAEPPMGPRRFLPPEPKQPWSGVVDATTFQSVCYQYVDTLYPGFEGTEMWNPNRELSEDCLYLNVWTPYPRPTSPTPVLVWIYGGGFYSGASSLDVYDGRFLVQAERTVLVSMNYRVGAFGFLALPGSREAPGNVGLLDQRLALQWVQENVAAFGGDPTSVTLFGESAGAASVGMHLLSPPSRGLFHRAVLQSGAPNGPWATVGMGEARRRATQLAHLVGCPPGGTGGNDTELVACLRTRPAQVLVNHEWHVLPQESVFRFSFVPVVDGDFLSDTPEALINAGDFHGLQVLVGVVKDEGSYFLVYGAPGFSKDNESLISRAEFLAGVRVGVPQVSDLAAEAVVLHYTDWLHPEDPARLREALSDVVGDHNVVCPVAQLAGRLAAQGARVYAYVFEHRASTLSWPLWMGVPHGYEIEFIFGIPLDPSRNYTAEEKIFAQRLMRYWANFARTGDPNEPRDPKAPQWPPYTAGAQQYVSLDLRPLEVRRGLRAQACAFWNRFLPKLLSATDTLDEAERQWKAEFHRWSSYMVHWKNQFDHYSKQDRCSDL", "experiment": "Inhibition of human recombinant AChE using ATCh as substrate preincubated for 20 mins followed by substrate addition and measured for 3 mins by Ellman method"}, "[2]": {"test_system": "HaCaT", "experiment": "Cytotoxicity against human HaCaT cells assessed as growth inhibition incubated for 48 hrs by Hoechst 33342 staining based assay", "type": "cell-based"}, "[3]": {"test_system": "ALK tyrosine kinase receptor (Homo sapiens), Q9UM73 [L1196M]", "experiment": "Binding affinity to wild-type human partial length ALK L1196M mutant (I1088 to E1409 residues) expressed in mammalian expression system assessed as residual binding level at 10 uM by Kinomescan method relative to control"}, "[4]": {"target": "Tyrosine-protein kinase receptor UFO (Homo sapiens) (UniProt P30530)", "sequence (P30530 whole entry, the tested form may be a part)": "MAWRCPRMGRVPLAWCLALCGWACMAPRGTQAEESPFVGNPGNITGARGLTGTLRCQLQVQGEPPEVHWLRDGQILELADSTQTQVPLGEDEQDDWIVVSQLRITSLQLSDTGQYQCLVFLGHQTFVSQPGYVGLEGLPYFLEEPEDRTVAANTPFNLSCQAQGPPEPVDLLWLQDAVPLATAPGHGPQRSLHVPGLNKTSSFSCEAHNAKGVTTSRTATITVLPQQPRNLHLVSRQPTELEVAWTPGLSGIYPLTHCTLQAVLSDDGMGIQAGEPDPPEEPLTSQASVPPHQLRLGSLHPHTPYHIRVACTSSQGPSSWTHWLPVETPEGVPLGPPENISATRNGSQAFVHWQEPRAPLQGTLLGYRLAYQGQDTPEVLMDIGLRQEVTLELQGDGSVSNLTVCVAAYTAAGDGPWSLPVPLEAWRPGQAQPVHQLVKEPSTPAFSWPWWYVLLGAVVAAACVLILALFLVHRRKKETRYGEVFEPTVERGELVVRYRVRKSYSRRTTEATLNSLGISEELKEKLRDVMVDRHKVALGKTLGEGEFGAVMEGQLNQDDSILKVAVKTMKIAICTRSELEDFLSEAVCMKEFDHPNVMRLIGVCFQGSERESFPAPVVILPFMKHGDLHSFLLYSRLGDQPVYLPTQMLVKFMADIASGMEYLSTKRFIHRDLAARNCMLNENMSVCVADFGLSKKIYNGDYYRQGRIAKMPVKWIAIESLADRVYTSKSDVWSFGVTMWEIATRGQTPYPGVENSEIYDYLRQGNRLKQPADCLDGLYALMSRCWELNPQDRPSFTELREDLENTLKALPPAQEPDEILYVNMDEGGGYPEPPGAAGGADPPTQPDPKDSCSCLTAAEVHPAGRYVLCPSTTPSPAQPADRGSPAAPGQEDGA", "experiment": "Binding affinity to wild-type human partial length AXL (R497 to Y821 residues) expressed in bacterial expression system assessed as residual binding level at 10 uM by Kinomescan method relative to control"}, "[5]": {"target": "Cyclin-dependent kinase 2 (Homo sapiens) (UniProt P24941)", "experiment": "Binding affinity to wild-type human full length CDK2 (M1 to L298 residues) expressed in bacterial expression system assessed as residual binding level at 10 uM by Kinomescan method relative to control"}, "[6]": {"target": "Macrophage colony-stimulating factor 1 receptor (Homo sapiens) (UniProt P07333)", "experiment": "Binding affinity to wild-type human partial length CSF1R (I564 to S939 residues) expressed in bacterial expression system assessed as residual binding level at 10 uM by Kinomescan method relative to control"}, "[7]": {"test_system": "Fibroblast growth factor receptor 3 (Homo sapiens), P22607 [G697C]", "experiment": "Binding affinity to human partial length FGFR3 G697C mutant (R442 to S771 residues) expressed in bacterial expression system assessed as residual binding level at 10 uM by Kinomescan method relative to control"}, "[8]": {"target": "Receptor-type tyrosine-protein kinase FLT3 (Homo sapiens) (UniProt P36888)", "experiment": "Binding affinity to wild-type human partial length FLT3 (V592 to Y969 residues) expressed in bacterial expression system assessed as residual binding level at 10 uM by Kinomescan method relative to control"}, "[9]": {"test_system": "Receptor-type tyrosine-protein kinase FLT3 (Homo sapiens), P36888 [UNDEFINED MUTATION]", "experiment": "Binding affinity to human partial length FLT3 ITD/D835V double mutant expressed in bacterial expression system assessed as residual binding level at 10 uM by Kinomescan method relative to control"}, "[10]": {"test_system": "Receptor-type tyrosine-protein kinase FLT3 (Homo sapiens), P36888 [N841I]", "experiment": "Binding affinity to human partial length FLT3 N841I mutant (V592 to Y969 residues) expressed in bacterial expression system assessed as residual binding level at 10 uM by Kinomescan method relative to control"}, "[11]": {"target": "Inhibitor of nuclear factor kappa-B kinase subunit alpha (Homo sapiens) (UniProt O15111)", "experiment": "Binding affinity to wild-type human full length IKK-alpha (M1 to E745 residues) expressed in mammalian expression system assessed as residual binding level at 10 uM by Kinomescan method relative to control"}, "[12]": {"target": "Tyrosine-protein kinase JAK1 (Homo sapiens) (UniProt P23458)", "experiment": "Binding affinity to wild-type human partial length JAK1 JH1 catalytic domain (V856 to K1154 residues) expressed in bacterial expression system assessed as residual binding level at 10 uM by Kinomescan method relative to control"}, "[13]": {"test_system": "Mast/stem cell growth factor receptor Kit (Homo sapiens), P10721 [L576P]", "experiment": "Binding affinity to human partial length KIT L576P mutant (Y545 to D952 residues) expressed in bacterial expression system assessed as residual binding level at 10 uM by Kinomescan method relative to control"}, "[14]": {"target": "Dual specificity mitogen-activated protein kinase kinase 4 (Homo sapiens) (UniProt P45985)", "experiment": "Binding affinity to wild-type human partial length MEK4 (S84 to D399 residues) expressed in mammalian expression system assessed as residual binding level at 10 uM by Kinomescan method relative to control"}, "[15]": {"target": "Mitogen-activated protein kinase kinase kinase 9 (Homo sapiens) (UniProt P80192)", "experiment": "Binding affinity to wild-type human partial length MLK1 (V88 to W426 residues) expressed in bacterial expression system assessed as residual binding level at 10 uM by Kinomescan method relative to control"}, "[16]": {"target": "Serine/threonine-protein kinase Nek5 (Homo sapiens) (UniProt Q6P3R8)", "sequence (Q6P3R8 whole entry, the tested form may be a part)": "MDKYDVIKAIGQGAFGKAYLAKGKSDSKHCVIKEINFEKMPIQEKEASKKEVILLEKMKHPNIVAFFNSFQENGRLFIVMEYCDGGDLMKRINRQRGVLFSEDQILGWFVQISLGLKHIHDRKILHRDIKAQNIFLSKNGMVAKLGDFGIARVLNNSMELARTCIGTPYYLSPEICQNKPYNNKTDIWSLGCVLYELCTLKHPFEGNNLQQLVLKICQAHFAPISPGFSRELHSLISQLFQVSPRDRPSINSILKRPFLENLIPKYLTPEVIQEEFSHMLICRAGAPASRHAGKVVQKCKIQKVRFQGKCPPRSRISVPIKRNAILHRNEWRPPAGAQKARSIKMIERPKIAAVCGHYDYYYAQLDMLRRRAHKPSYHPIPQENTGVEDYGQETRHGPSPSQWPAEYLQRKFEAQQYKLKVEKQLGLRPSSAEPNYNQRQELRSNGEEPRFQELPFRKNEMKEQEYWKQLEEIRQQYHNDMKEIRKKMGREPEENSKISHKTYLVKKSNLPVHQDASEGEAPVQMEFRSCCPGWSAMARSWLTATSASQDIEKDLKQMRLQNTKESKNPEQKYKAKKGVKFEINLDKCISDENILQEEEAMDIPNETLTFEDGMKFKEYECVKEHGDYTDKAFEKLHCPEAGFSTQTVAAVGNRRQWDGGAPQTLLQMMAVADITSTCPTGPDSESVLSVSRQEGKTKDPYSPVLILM", "experiment": "Binding affinity to wild-type human partial length NEK5 (M1 to M279 residues) expressed in bacterial expression system assessed as residual binding level at 10 uM by Kinomescan method relative to control"}, "[17]": {"target": "Phosphatidylinositol 4,5-bisphosphate 3-kinase catalytic subunit alpha isoform (Homo sapiens) (UniProt P42336)", "sequence (P42336 whole entry, the tested form may be a part, canonical isoform)": "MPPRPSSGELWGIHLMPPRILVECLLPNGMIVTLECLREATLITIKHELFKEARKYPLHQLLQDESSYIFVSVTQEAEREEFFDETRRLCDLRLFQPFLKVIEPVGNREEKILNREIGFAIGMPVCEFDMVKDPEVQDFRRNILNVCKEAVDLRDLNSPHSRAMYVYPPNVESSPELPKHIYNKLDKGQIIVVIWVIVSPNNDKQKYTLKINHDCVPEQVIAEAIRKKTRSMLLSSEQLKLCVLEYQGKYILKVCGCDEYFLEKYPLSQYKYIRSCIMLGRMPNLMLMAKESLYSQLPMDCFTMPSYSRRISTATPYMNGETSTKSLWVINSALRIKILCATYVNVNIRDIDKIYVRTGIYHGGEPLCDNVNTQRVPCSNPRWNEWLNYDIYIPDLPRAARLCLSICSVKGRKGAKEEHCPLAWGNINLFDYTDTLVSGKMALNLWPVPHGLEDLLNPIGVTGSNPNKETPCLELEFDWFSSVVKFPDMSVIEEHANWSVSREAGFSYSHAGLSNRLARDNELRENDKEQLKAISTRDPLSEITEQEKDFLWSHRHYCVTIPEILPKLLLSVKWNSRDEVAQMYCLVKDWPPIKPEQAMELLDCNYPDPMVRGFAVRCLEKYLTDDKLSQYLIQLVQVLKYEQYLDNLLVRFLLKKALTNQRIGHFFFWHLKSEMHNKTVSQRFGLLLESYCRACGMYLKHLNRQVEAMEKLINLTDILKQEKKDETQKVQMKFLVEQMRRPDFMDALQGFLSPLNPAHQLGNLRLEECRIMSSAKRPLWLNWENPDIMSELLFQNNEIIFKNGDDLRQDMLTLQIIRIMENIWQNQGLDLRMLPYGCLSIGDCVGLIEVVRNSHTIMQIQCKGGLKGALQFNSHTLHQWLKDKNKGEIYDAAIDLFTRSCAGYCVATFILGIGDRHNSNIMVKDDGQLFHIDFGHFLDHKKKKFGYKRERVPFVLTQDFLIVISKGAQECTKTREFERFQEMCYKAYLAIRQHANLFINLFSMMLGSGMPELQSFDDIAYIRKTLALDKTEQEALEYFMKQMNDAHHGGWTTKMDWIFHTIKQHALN", "experiment": "Binding affinity to wild-type human partial length PIK3CA (R108 to N1068 residues) expressed in mammalian expression system assessed as residual binding level at 10 uM by Kinomescan method relative to control"}, "[18]": {"target": "Serine/threonine-protein kinase pim-3 (Homo sapiens) (UniProt Q86V86)", "experiment": "Binding affinity to wild-type human partial length PIM3 (G16 to A317 residues) expressed in bacterial expression system assessed as residual binding level at 10 uM by Kinomescan method relative to control"}, "[19]": {"target": "Receptor-interacting serine/threonine-protein kinase 1 (Homo sapiens) (UniProt Q13546)", "experiment": "Binding affinity to wild-type human partial length RIPK1 (M1 to K305 residues) expressed in bacterial expression system assessed as residual binding level at 10 uM by Kinomescan method relative to control"}, "[20]": {"target": "Ribosomal protein S6 kinase alpha-5 (Homo sapiens) (UniProt O75582)", "sequence (O75582 whole entry, looked up, the tested form may be a part)": "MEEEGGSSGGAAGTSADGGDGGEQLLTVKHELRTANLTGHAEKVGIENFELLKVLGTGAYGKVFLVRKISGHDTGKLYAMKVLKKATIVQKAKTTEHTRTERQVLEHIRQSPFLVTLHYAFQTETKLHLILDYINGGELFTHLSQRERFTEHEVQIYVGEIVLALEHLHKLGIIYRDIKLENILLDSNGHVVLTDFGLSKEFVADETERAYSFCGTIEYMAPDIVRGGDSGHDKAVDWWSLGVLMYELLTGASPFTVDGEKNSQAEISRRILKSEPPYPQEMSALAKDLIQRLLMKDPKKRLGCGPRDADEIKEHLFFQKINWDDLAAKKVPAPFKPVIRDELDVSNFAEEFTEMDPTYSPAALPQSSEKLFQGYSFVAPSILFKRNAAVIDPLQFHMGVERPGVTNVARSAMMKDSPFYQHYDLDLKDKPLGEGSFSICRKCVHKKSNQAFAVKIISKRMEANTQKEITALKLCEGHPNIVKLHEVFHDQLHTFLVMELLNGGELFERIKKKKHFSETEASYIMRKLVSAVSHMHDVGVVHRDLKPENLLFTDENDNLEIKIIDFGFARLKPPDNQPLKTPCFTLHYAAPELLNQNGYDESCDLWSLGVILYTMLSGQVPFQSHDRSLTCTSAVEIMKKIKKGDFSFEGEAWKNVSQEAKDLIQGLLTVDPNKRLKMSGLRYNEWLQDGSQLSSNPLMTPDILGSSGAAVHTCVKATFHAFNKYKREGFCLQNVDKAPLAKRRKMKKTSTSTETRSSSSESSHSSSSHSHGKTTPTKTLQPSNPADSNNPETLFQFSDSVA", "experiment": "Binding affinity to wild-type human partial length N-terminal RPS6KA5 kinase domain 1 expressed in bacterial expression system assessed as residual binding level at 10 uM by Kinomescan method relative to control"}, "[21]": {"target": "Ribosomal protein S6 kinase alpha-1 (Homo sapiens) (UniProt Q15418)", "experiment": "Binding affinity to wild-type human partial length N-terminal RSK1 Kinase domain 1 (M1 to E388 residues) expressed in bacterial expression system assessed as residual binding level at 10 uM by Kinomescan method relative to control"}, "[22]": {"target": "Proto-oncogene tyrosine-protein kinase Src (Homo sapiens) (UniProt P12931)", "sequence (P12931 2-536 limits assumed)": "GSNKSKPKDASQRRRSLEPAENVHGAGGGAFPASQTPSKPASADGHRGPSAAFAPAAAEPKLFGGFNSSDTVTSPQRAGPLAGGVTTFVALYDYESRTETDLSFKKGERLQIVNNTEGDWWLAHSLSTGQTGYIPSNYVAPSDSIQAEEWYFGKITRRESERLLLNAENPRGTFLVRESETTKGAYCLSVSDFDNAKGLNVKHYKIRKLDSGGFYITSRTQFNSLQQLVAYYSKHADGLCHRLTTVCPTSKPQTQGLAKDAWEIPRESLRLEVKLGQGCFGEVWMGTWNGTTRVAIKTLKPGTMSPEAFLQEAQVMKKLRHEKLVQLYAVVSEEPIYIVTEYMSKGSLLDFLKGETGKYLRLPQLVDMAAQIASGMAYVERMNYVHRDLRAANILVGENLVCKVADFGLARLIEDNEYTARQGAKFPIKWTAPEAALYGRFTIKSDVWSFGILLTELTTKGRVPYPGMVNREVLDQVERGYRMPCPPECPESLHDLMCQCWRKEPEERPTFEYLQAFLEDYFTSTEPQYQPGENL", "experiment": "Binding affinity to wild-type human partial length SRC (L240 to L536 residues) expressed in bacterial expression system assessed as residual binding level at 10 uM by Kinomescan method relative to control"}, "[23]": {"target": "Tyrosine-protein kinase receptor TYRO3 (Homo sapiens) (UniProt Q06418)", "experiment": "Binding affinity to wild-type human partial length TYRO3 (S497 to T814 residues) expressed in bacterial expression system assessed as residual binding level at 10 uM by Kinomescan method relative to control"}, "[24]": {"target": "Serine/threonine-protein kinase 32A (Homo sapiens) (UniProt Q8WU08)", "sequence (Q8WU08 whole entry, the tested form may be a part)": "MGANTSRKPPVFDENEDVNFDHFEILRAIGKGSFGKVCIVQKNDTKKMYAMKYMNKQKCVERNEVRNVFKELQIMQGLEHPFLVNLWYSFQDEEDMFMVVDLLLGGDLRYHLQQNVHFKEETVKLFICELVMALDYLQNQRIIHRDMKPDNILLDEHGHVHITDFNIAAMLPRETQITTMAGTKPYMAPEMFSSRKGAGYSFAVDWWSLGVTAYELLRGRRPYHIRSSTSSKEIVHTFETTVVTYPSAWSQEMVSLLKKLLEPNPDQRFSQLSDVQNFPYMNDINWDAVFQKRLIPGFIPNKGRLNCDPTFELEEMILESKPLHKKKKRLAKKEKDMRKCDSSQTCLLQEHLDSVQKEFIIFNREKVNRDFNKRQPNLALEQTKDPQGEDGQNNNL", "experiment": "Binding affinity to wild-type human full length YANK1 (M1 to L396 residues) expressed in mammalian expression system assessed as residual binding level at 10 uM by Kinomescan method relative to control"}, "[25]": {"target": "Serine/threonine-protein kinase 32B (Homo sapiens) (UniProt Q9NY57)", "experiment": "Binding affinity to wild-type human full length YANK2 (M1 to S414 residues) expressed in bacterial expression system assessed as residual binding level at 10 uM by Kinomescan method relative to control"}},
  "data": [
    {"smiles": "O=C(Nc1cc(-c2cn(CCNc3c4c(nc5ccccc35)CCCC4)nn2)ccn1)Nc1cccc2c1C1CCCCN1C2=O", "note": "(racemic)", "values": [
      {"measurement": "IC50", "setting": "[1]", "value": 11.4, "unit": "nM"},
      {"measurement": "IC50", "setting": "[2]", "value": 5000, "unit": "nM"},
      {"measurement": "Activity", "setting": "[3]", "value": 100, "unit": "%"},
      {"measurement": "Activity", "setting": "[4]", "value": 5.5, "unit": "%"},
      {"measurement": "Activity", "setting": "[5]", "value": 74, "unit": "%"},
      {"measurement": "Activity", "setting": "[6]", "value": 0.2, "unit": "%"},
      {"measurement": "Activity", "setting": "[7]", "value": 40, "unit": "%"},
      {"measurement": "Activity", "setting": "[8]", "value": 0.55, "unit": "%"},
      {"measurement": "Activity", "setting": "[9]", "value": 0.23, "unit": "%"},
      {"measurement": "Activity", "setting": "[10]", "value": 0, "unit": "%"},
      {"measurement": "Activity", "setting": "[11]", "value": 53, "unit": "%"},
      {"measurement": "Activity", "setting": "[12]", "value": 84, "unit": "%"},
      {"measurement": "Activity", "setting": "[13]", "value": 0, "unit": "%"},
      {"measurement": "Activity", "setting": "[14]", "value": 100, "unit": "%"},
      {"measurement": "Activity", "setting": "[15]", "value": 38, "unit": "%"},
      {"measurement": "Activity", "setting": "[16]", "value": 82, "unit": "%"},
      {"measurement": "Activity", "setting": "[17]", "value": 73, "unit": "%"},
      {"measurement": "Activity", "setting": "[18]", "value": 24, "unit": "%"},
      {"measurement": "Activity", "setting": "[19]", "value": 3.3, "unit": "%"},
      {"measurement": "Activity", "setting": "[20]", "value": 55, "unit": "%"},
      {"measurement": "Activity", "setting": "[21]", "value": 3.9, "unit": "%"},
      {"measurement": "Activity", "setting": "[22]", "value": 24, "unit": "%"},
      {"measurement": "Activity", "setting": "[23]", "value": 96, "unit": "%"},
      {"measurement": "Activity", "setting": "[24]", "value": 95, "unit": "%"},
      {"measurement": "Activity", "setting": "[25]", "value": 100, "unit": "%"}
    ]}
  ]
}
